Measured values as given in patent EP2727916A1, “Neuroprotective multi-target directed drugs” (Universitat Autònoma de Barcelona, priority 2012, dated 2014).
Read-outs that look alike come from different tables or passages of the source.

Columns and labels:
[1] = biological target: T1, electrophorus electricus acetylcholinesterase (eeAChE) (Electrophorus electricus, UniProt O42275); experiment: biochemical; format: biochemical; details: 20 minutes incubation at 37°C; mean ± standard error of the mean; read-out: IC50 EeAChE
T1 sequence (O42275 24-633): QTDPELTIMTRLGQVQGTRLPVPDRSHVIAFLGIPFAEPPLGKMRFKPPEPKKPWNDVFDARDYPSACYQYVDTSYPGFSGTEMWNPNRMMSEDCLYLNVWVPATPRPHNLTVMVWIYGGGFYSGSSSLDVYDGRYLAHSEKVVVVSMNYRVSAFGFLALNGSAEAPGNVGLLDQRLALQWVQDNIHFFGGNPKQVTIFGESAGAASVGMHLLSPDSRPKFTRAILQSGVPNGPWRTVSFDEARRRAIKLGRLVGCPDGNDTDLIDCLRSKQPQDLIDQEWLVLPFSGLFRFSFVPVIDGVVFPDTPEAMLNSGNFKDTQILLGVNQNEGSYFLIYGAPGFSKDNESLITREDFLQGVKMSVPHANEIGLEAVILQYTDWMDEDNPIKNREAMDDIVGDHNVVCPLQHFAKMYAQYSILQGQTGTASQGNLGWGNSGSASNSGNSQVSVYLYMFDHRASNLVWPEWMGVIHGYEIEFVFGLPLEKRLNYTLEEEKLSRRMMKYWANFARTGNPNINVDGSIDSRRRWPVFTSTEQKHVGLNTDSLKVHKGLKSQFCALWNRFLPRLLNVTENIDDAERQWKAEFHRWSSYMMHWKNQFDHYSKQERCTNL

[2] = biological target: T2, equine serum butyrylcholinesterase (eqBuChE) (Equus caballus, UniProt P81908); experiment: biochemical; format: biochemical
T2 sequence (P81908 whole entry): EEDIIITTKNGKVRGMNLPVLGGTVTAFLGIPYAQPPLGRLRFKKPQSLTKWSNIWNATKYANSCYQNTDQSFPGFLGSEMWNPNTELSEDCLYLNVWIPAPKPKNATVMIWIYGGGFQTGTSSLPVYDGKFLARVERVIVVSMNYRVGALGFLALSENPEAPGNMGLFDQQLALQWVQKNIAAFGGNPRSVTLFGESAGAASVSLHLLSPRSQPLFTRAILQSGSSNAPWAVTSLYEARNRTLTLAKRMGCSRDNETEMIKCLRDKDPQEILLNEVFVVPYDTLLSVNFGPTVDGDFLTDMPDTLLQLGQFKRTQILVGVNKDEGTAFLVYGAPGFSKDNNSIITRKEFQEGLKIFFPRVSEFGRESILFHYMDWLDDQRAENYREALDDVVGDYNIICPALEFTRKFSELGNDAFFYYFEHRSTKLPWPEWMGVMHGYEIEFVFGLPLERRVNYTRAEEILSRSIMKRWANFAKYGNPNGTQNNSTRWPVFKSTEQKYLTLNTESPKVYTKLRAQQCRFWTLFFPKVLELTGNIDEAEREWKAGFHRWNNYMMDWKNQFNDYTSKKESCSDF

ratMAO-A [3] = biological target: T3, ratMAO-A (Rattus norvegicus, UniProt P21396); experiment: MAO-A inhibition, radiometric method of Fowler and Tipton (14C 5-HT); format: biochemical; design: MAO-A and MAO-B activities were determined in rat brain homogenate; from tissue; host or cells: rat brain homogenate per the methods; details: 30 min pre-incubation at 37 °C; 100µM 5-HT; mean ± standard error of the mean
T3 sequence (P21396 1-526): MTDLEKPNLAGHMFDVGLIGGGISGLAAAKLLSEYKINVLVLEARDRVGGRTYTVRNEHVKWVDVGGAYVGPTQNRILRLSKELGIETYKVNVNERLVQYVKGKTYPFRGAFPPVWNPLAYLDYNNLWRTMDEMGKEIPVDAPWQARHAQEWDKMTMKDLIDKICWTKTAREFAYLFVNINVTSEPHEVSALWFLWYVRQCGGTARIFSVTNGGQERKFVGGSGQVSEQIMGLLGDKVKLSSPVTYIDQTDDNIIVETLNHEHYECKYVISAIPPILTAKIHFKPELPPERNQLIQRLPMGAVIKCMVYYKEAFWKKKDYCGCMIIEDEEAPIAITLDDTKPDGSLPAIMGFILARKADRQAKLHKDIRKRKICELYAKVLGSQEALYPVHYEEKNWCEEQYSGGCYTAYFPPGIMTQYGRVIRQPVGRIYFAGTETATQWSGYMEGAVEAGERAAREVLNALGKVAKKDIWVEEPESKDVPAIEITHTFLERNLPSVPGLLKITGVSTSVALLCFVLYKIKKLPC

bovine lung SSAO = biological target: T4, bovine lung SSAO (Bos taurus, UniProt Q9TTK6); experiment: Inhibition of semicarbazide sensitive amine oxidase (SSAO), radiochemical; format: biochemical; details: bovine lung SSAO; mean ± standard error of the mean; read-out: IC50 bovineSSAO
T4 construct: and bovine lung SSAO by compounds of the invention; from tissue; host or cells: bovine lung
T4 sequence (Q9TTK6 1-763): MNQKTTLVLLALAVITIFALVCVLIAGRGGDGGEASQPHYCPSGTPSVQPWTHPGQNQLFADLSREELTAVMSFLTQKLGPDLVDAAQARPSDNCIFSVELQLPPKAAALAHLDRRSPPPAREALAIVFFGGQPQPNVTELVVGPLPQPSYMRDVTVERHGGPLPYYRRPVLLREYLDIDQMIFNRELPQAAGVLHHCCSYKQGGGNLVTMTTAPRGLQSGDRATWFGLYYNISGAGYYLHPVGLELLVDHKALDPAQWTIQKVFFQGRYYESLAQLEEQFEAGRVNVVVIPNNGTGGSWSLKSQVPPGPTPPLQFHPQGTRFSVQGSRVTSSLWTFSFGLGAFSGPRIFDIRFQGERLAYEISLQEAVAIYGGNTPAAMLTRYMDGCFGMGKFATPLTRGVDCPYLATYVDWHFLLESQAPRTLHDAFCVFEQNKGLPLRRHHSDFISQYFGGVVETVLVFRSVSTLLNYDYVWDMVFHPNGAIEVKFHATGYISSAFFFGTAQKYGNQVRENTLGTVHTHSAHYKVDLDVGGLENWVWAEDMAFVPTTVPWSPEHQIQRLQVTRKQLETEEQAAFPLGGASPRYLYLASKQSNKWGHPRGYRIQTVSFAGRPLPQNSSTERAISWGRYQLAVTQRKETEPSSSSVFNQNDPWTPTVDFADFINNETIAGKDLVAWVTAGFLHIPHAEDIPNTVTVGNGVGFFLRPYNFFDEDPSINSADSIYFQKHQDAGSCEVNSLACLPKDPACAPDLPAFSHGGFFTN

ratMAO-B [4] = biological target: T5, ratMAO-B (Rattus norvegicus, UniProt P19643); experiment: MAO-B inhibition, radiometric method of Fowler and Tipton (14C PEA); format: biochemical; design: MAO-A and MAO-B activities were determined in rat brain homogenate; from tissue; host or cells: rat brain homogenate per the methods; details: for IC50: 30 min pre-incubation at 37 °C, 20 µM PEA, mean ± standard error of the mean
T5 sequence (P19643 1-520): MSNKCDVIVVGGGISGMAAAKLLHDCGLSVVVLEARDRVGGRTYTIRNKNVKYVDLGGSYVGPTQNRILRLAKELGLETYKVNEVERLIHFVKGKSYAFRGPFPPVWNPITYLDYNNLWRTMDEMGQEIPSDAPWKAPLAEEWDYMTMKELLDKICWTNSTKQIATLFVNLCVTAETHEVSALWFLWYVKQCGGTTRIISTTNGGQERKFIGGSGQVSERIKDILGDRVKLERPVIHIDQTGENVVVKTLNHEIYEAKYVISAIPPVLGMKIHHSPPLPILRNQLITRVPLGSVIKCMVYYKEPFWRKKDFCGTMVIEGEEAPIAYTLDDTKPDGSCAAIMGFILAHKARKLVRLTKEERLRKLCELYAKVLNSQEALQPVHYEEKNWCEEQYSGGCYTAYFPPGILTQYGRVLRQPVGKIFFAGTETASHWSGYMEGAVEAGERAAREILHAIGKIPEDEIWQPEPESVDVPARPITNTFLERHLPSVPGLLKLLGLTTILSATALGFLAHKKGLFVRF

ratMAO-A [5] = biological target: T3, ratMAO-A; design: MAO-A and MAO-B activities were determined in rat brain homogenate; from tissue; host or cells: rat brain homogenate per the methods; details: reference value, footnote (a) Zheng et al. 2010; cited from earlier work
[6] = biological target: T1, electrophorus electricus acetylcholinesterase (eeAChE); details: reference value, footnote (a) Zheng et al. 2010; cited from earlier work
ratMAO-B [7] = biological target: T5, ratMAO-B; design: MAO-A and MAO-B activities were determined in rat brain homogenate; from tissue; host or cells: rat brain homogenate per the methods; details: reference value, footnote (a) Zheng et al. 2010; cited from earlier work
[8] = biological target: T2, equine serum butyrylcholinesterase (eqBuChE); details: reference value, footnote (a) Zheng et al. 2010; cited from earlier work
[9] = 20 minutes incubation at 37°C, mean ± standard error of the mean, read-out: IC50 eqBuChE

| Structure (SMILES) | IC50 [1] | IC50 [2, 9] | BuChE/ AChE ([2]; ratio of IC50 values) | IC50 (ratMAO-A [3]) | IC50 (bovine lung SSAO) | IC50 (ratMAO-B [4]) | MAO-B/ MAO-A (ratMAO-B [4]; ratio of IC50 values) | IC50 (ratMAO-A [5]) | IC50 [6] | IC50 (ratMAO-B [7]) | MAO-B/ MAO-A (ratMAO-B [4]) | IC50 [8] | IC50 eqBuChE [8] | BuChE/ AChE [2] | IC50 [2] |
| --- | --- | --- | --- | --- | --- | --- | --- | --- | --- | --- | --- | --- | --- | --- | --- |
| C#CCN(Cc1ccc(O)c2ncccc12)CC1CCN(Cc2ccccc2)CC1 [Compound 3, 5-((((1-benzylpiperidin-4-yl)methyl)(prop-2-ynyl)amino)methyl)quinolin-8-ol] | 17 ± 4.7 µM | 12.8 ± 1.4 µM | 0.75 | 85.4 ± 3.7 µM | ≥ 100 µM | 19.4 ± 3.2 µM | 0.22 | – | – | – | – | – | – | – | – |
| C#CCN(C)Cc1ccc(O)c2ncccc12 [Compound M-30] | – | – | – | – | – | – | – | 0.037 ± 0.02 µM | 114 ± 14.1 µM | 0.057 ± 0.02 µM | 1.5 | ≥ 100 µM | inactive | – | – |
| C#CCN(CCC1CCN(Cc2ccccc2)CC1)Cc1ccc(O)c2ncccc12 [Compound 5, 5-(((2-(1-benzylpiperidin-4-yl)ethyl)(prop-2-ynyl)amino)methyl)quinolin-8-ol] | 5.01 ± 0.8 µM | 14.5 ± 3.6 µM | 2.8 | ≥ 100 µM | 39.7 ± 16 µM | 50.08 ± 0.5 µM | ≥ 0.5 | – | – | – | – | – | – | – | – |
| C#CCN(CCCC1CCN(Cc2ccccc2)CC1)Cc1ccc(O)c2ncccc12 [Compound 7, 5-(((3-(1-benzylpiperidin-4-yl)propyl)(prop-2-ynyl)amino)methyl)quinolin-8-ol] | 2.67 ± 0.4 µM | 4.52 ± 0.3 µM | 1.6 | ≥ 100 µM | 61.1 ± 21.4 µM | 34.5 ± 3.5 µM | ≥ 0.34 | – | – | – | – | – | – | – | – |
| C#CCN(Cc1ccc(O)c2ncccc12)C(C#N)CC1CCN(Cc2ccccc2)CC1 (centres unmarked) [Compound 4, 3-(1-benzylpiperidin-4-yl)-2-(((8-hydroxyquinolin-5-yl)methyl)(prop-2-ynyl)amino)propanenitrile] | 5.53 ± 0.5 µM | – | – | 9.67 ± 1.5 µM | 2.79 ± 0.7 µM | 12.4 ± 2.5 µM | – | – | – | – | 1.2 | – | – | 1.1 | 6.06 ± 0.6 µM |
| C#CCN(Cc1ccc(O)c2ncccc12)C(C#N)C1CCN(Cc2ccccc2)CC1 (centres unmarked) [Compound 2, 2-(1-benzylpiperidin-4-yl)-2-(((8-hydroxyquinolin-5-yl)methyl)(prop-2-ynyl)amino)acetonitrile] | 14.5 ± 3.7 µM | 13.5 ± 1.8 µM | 0.92 | 22.1 ± 0.7 µM | 18 ± 5 µM | 39.5 ± 1.4 µM | – | – | – | – | 1.7 | – | – | – | – |
